How the values were obtained:
Type in all cases: ADME, organism-based
Plasma [1] = assay: Intercompartmental clearance rate from peripheral to central side of extracorporeal membrane oxygenation-treated human neonatal plasma at 20 mg/kg, po by UPLC-MS/MS analysis; parameters: dose 20 mg/kg, route oral; details: in vivo
Plasma [2] = assay: Intercompartmental clearance rate from central to peripheral side of extracorporeal membrane oxygenation-treated human neonatal plasma at 20 mg/kg, po by UPLC-MS/MS analysis; parameters: dose 20 mg/kg, route oral; details: in vivo
Plasma [3] = assay: Volume of distribution in extracorporeal membrane oxygenation-treated human neonatal plasma at 20 mg/kg, po by UPLC-MS/MS analysis; parameters: dose 20 mg/kg, route oral; details: in vivo
[4] = Volume of distribution in extracorporeal membrane oxygenation-treated human neonatal plasma at 25 mg/kg SID by UPLC-MS/MS analysis; parameters: dose 25 mg/kg
[5] = Elimination rate constant in extracorporeal membrane oxygenation-treated human neonatal plasma at 25 mg/kg QID by UPLC-MS/MS analysis; parameters: dose 25 mg/kg
[6] = Elimination rate constant in extracorporeal membrane oxygenation-treated human neonatal plasma treatment at 50 mg/kg BID by UPLC-MS/MS analysis; parameters: dose 50 mg/kg
[7] = Volume of distribution in extracorporeal membrane oxygenation-treated human neonatal plasma at 50 mg/kg BID by UPLC-MS/MS analysis; parameters: dose 50 mg/kg

`CN[C@H](CC(C)C)C(=O)N[C@H]1C(=O)N[C@@H](CC(N)=O)C(=O)N[C@H]2C(=O)N[C@H]3C(=O)N[C@H](C(=O)N[C@H](C(=O)O)c4cc(O)cc(O)c4-c4cc3ccc4O)[C@H](O)c3ccc(c(Cl)c3)Oc3cc2cc(c3O[C@@H]2O[C@H](CO)[C@@H](O)[C@H](O)[C@H]2O[C@H]2C[C@](C)(N)[C@H](O)[C@H](C)O2)Oc2ccc(cc2Cl)[C@H]1O` [VANCOMYCIN] gave a k21 (Plasma [1]) of 2.634 h⁻¹ and a k12 (Plasma [2]) of 1.5 h⁻¹.
`CC1(C)S[C@@H]2[C@H](NC(=O)[C@H](N)c3ccc(O)cc3)C(=O)N2[C@H]1C(=O)O` [AMOXICILLIN] showed a Vd (Plasma [3]) of 1.03 L/kg, a Vd [4] of 0.713 L/kg and a k el [5] of 9.17e-05 s⁻¹.
Work on `CO/N=C(\C(=O)N[C@@H]1C(=O)N2C(C(=O)O)=C(COC(C)=O)CS[C@H]12)c1csc(N)n1` [CEFOTAXIME] yielded a k el [6] of 5.47e-05 s⁻¹ and a Vd [7] of 0.912 L/kg.
